Assay results as given in US12649751B2 (Arcus Biosciences, Inc., priority 2022, dated 2026).
pIC50: −log10 of the molar value.

Biological target: HPK1 (Homo sapiens, UniProt Q92918)
Test: HPK1 Biochemical Assay (ADP-Glo luminescence; low ATP 10 μM or high ATP 200 μM)
Settings: 2 nM HPK1, 10 μM ATP; read-out: Biochemical Potency (low ATP)
Procedure: Dose-response assays were performed in Corning® Low Volume 384-well assay plates containing 100 nL of 22 serial 2-fold compound dilutions. Wells containing DMSO alone were used as negative control. A kinase mixture (5 μL) containing 2 nM HPK1 (or 5 nM for high ATP assay) in assay buffer (50 mM Hepes pH 7.4, 10 mM MgCl2, 0.01% Brij-15, 0.01% bovine serum albumin, and 1 mM dithiothreitol) was added to the assay plates and incubated at 25° C. for 1 hour. Wells without HPK1 were used as positive control. A […] of 10 μM ATP (or 200 μM for high ATP) and 0.2 μg/μL […] was then added to the wells, resulting in a 10 μL total reaction volume. Following incubation of the assay plates at 25° C. for 1 hour, 10 μL of ADP-Glo reagent was added to the wells and the plates were incubated at 25° C. for a further 40 minutes (or 1 hour for high ATP assay). Finally, 20 μL of Kinase Detection Reagent was added, and the plates were incubated for another 30 minutes at 25° C. An Envision plate reader was then used to detect the luminescence signals. IC50 values were determined by fitting the data to a standard 4-parameter logistic equation. The results are summarized in the Biochemical Potency columns of Tables 4 and 5 below (Biochemical Potency (high ATP); Biochemical Potency (low ATP)).

Chain of HPK1 (Q92918 whole entry, species assumed): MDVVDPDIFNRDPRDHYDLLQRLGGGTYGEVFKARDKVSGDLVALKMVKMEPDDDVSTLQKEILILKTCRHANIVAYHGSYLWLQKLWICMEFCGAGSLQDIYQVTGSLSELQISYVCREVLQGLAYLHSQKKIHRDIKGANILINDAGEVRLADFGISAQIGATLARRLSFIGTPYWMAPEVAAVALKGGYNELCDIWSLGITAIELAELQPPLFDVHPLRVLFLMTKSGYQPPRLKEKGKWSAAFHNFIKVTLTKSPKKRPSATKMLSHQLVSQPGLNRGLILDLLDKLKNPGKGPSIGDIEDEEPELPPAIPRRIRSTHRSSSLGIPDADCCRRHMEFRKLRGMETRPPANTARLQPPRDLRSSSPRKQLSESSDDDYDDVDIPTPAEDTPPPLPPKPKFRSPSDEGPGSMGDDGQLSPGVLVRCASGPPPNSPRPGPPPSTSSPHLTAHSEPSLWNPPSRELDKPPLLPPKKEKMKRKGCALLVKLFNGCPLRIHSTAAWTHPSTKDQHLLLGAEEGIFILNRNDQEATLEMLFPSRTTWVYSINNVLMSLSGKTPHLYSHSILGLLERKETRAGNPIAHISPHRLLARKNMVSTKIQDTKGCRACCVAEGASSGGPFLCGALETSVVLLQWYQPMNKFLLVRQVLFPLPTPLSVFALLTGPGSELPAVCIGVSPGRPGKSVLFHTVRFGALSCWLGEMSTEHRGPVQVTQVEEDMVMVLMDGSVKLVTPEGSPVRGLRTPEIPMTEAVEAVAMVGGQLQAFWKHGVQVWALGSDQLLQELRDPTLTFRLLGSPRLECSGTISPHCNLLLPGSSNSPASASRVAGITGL

Compound | pIC50
Cc1ccc(Nc2cc3nc(-c4ncccc4C)sc3cn2)nc1OC1CCNC1 (stereo not drawn) [Example 162, 5-Methyl-N-[2-(3-methylpyridin-2-yl)-[1,3]thiazolo[5,4-c]pyridin-6-yl]-6-(pyrrolidin-3-yloxy)pyridin-2-amine] | > 7.00
Cc1cc(-c2nc3cc(Nc4ccc(N5CCOCC5)c(CN5CCCC5)c4)ncc3s2)ccn1 [Example 2, 2-(2-Methylpyridin-4-yl)-N-[4-(morpholin-4-yl)-3-[(pyrrolidin-1-yl)methyl]phenyl]-[1,3]thiazolo[5,4-c]pyridin-6-amine] | 6.00 to 7.00
CN1C[C@@H]2C[C@H]1CN2c1nccc(Nc2cc3nc(-c4ccnc(N5CC[C@H](F)C5)c4)sc3cn2)n1 [Example 265, N-(2-{2-[(3S)-3-Fluoropyrrolidin-1-yl]pyridin-4-yl}-[1,3]thiazolo[5,4-c]pyridin-6-yl)-2-[(1S,4S)-5-methyl-2,5-diazabicyclo[2.2.1]heptan-2-yl]pyrimidin-4-amine] | > 7.00
Cc1ccc(-c2nc3cc(Nc4ccc(C5CCOCC5)c(CN5CCCC5)n4)ncc3s2)cn1 [Example 222, N-[2-(6-Methylpyridin-3-yl)-[1,3]thiazolo[5,4-c]291yridine-6-yl]-5-(oxan-4-yl)-6-[(291yridine291ne-1-yl)methyl]291yridine-2-amine] | > 7.00
c1cc(C2CCOCC2)c(CN2CCCC2)nc1Nc1cc2nc(N3C[C@@H]4C[C@H]3CO4)sc2cn1 [Example 211] | 6.00 to 7.00
Cc1cc(Nc2cc3nc(-c4cc(C#N)ccc4C)sc3cn2)nc(O[C@H]2CCNC2)c1 [Example 176, 4-Methyl-3-(6-{[4-methyl-6-((3S)-pyrrolidin-3-yloxy)pyridin-2-yl]amino}-[1,3]thiazolo[5,4-c]pyridin-2-yl)benzonitrile] | > 7.00
c1cc(C2CCOCC2)c(CN2CCCC2)nc1Nc1cc2nc(N3C4COCC3C4)sc2cn1 [Example 237, N-(2-{3-Oxa-6-azabicyclo[3.1.1]heptan-6-yl}-[1,3]thiazolo[5,4-c]pyridin-6-yl)-5-(oxan-4-yl)-6-[(pyrrolidin-1-yl)methyl]pyridin-2-amine] | > 7.00
Cc1cccnc1-c1nc2cc(Nc3cccc(N4CCN(C)[C@@H](C)C4)n3)ncc2s1 [Example 94, 6-[(3S)-3,4-Dimethylpiperazin-1-yl]-N-[2-(3-methylpyridin-2-yl)-[1,3]thiazolo[5,4-c]pyridin-6-yl]pyridin-2-amine] | > 7.00
CN1C[C@@H]2C[C@H]1CN2c1nccc(Nc2cc3nc(-c4ccnc(C(C)(C)O)c4)sc3cn2)n1 [Example 121, 2-{4-[6-({2-[(1S,4S)-5-Methyl-2,5-diazabicyclo[2.2.1]heptan-2-yl]pyrimidin-4-yl}amino)-[1,3]thiazolo[5,4-c]pyridin-2-yl]pyridin-2-yl}propan-2-ol] | > 7.00
CN1C[C@@H]2C[C@H]1CN2c1cncc(Nc2cc3nc(-c4ccnc(N5CC[C@@H](O)C5)c4)sc3cn2)n1 [Example 263, (3R)-1-{4-[6-({6-[(1S,4S)-5-Methyl-2,5-diazabicyclo[2.2.1]heptan-2-yl]pyrazin-2-yl}amino)-[1,3]thiazolo[5,4-c]pyridin-2-yl]pyridin-2-yl}pyrrolidin-3-ol] | > 7.00
Cc1ccc(Nc2cc3nc(-n4nccc4C)sc3cn2)nc1CN[C@@H]1CCOC1 [Example 199, 5-Methyl-N-[2-(5-methyl-1H-pyrazol-1-yl)-[1,3]thiazolo[5,4-c]pyridin-6-yl]-6-({[(3R)-oxolan-3-yl]amino}methyl)pyridin-2-amine] | > 7.00
Cc1cccnc1-c1nc2cc(Nc3ccc(C)c(N4C[C@H]5CC[C@@H](C4)[C@H]5O)n3)ncc2s1 [Example 106, (1R,5S,8S)-3-(3-Methyl-6-{[2-(3-methylpyridin-2-yl)-[1,3]thiazolo[5,4-c]pyridin-6-yl]amino}pyridin-2-yl)-3-azabicyclo[3.2.1]octan-8-ol] | > 7.00
C[C@@H]1CCC(=O)N1c1nc2cc(Nc3ccc(C4CCOCC4)c(CN4CCCC4)n3)ncc2s1 [Example 207, (5R)-5-Methyl-1-(6-{[5-(oxan-4-yl)-6-[(pyrrolidin-1-yl)methyl]pyridin-2-yl]amino}-[1,3]thiazolo[5,4-c]pyridin-2-yl)pyrrolidin-2-one] | 6.00 to 7.00
Cc1cccnc1-c1nc2cc(Nc3cccc(N4CCN(C)C[C@H]4C)n3)ncc2s1 [Example 103, 6-[(2R)-2,4-Dimethylpiperazin-1-yl]-N-[2-(3-methylpyridin-2-yl)-[1,3]thiazolo[5,4-c]pyridin-6-yl]pyridin-2-amine] | 6.00 to 7.00
Cc1cccnc1-c1nc2cc(Nc3ccc(N4CCOCC4)c(CN4CCCCC4)n3)ncc2s1 [Example 64, N-[2-(3-Methylpyridin-2-yl)-[1,3]thiazolo[5,4-c]pyridin-6-yl]-5-(morpholin-4-yl)-6-[(piperidin-1-yl)methyl]pyridin-2-amine] | > 7.00
Cc1cccnc1-c1nc2cc(Nc3cc(C4CCOCC4)nc(N4C[C@@H]5C[C@H]4CN5)n3)ncc2s1 [Example 250, 2-[(1S,4S)-2,5-Diazabicyclo[2.2.1]heptan-2-yl]-N-[2-(3-methylpyridin-2-yl)-[1,3]thiazolo[5,4-c]pyridin-6-yl]-6-(oxan-4-yl)pyrimidin-4-amine] | > 7.00
Cc1cccnc1-c1nc2cc(Nc3ccc(C4CCOCC4)c(CN4CC[C@@H](F)C4)n3)ncc2s1 [Example 213, 6-{[(3R)-3-Fluoropyrrolidin-1-yl]methyl}-N-[2-(3-methylpyridin-2-yl)-[1,3]thiazolo[5,4-c]pyridin-6-yl]-5-(oxan-4-yl)pyridin-2-amine] | > 7.00
Cc1ccc(Nc2cc3nc(-n4nccc4C)sc3cn2)nc1N1C[C@@H](N)C[C@H]1CO [Example 201, [(2S,4S)-4-Amino-1-(3-methyl-6-{[2-(5-methyl-1H-pyrazol-1-yl)-[1,3]thiazolo[5,4-c]pyridin-6-yl]amino}pyridin-2-yl)pyrrolidin-2-yl]methanol] | > 7.00
Cc1cccnc1-c1nc2cc(Nc3ccc(C4CCOCC4)c(NCc4nccn4C)n3)ncc2s1 [Example 251, N2-[(1-Methyl-1H-imidazol-2-yl)methyl]-N6-[2-(3-methylpyridin-2-yl)-[1,3]thiazolo[5,4-c]pyridin-6-yl]-3-(oxan-4-yl)pyridine-2,6-diamine] | > 7.00
CN1C[C@@H]2C[C@H]1CN2c1nccc(Nc2cc3nc(-c4ncco4)sc3cn2)n1 [Example 157, 2-[(1S,4S)-5-Methyl-2,5-diazabicyclo[2.2.1]heptan-2-yl]-N-[2-(1,3-oxazol-2-yl)-[1,3]thiazolo[5,4-c]pyridin-6-yl]pyrimidin-4-amine] | > 7.00
Cc1ccc(Nc2cc3nc(-c4cnn(C5CCOCC5)c4)sc3cn2)nc1CN1CCCC1 [Example 39, 5-Methyl-N-{2-[1-(oxan-4-yl)-1H-pyrazol-4-yl]-[1,3]thiazolo[5,4-c]pyridin-6-yl}-6-[(pyrrolidin-1-yl)methyl]pyridin-2-amine] | > 7.00
CNS(=O)(=O)c1cccc(-c2nc3cc(Nc4cccc(N5C[C@@H]6C[C@H]5CN6)n4)ncc3s2)c1 [Example 292, 3-[6-({6-[(1S,4S)-2,5-diazabicyclo[2.2.1]heptan-2-yl]pyridin-2-yl}amino)-[1,3]thiazolo[5,4-c]pyridin-2-yl]-N-methylbenzene-1-sulfonamide] | > 7.00
CN1C[C@@H]2C[C@H]1CN2c1cncc(Nc2cc3nc(-c4cccc(C(C)(C)O)c4)sc3cn2)n1 [Example 152, 2-{3-[6-({6-[(1S,4S)-5-Methyl-2,5-diazabicyclo[2.2.1]heptan-2-yl]pyrazin-2-yl}amino)-[1,3]thiazolo[5,4-c]pyridin-2-yl]phenyl}propan-2-ol] | > 7.00
Cc1cccnc1-c1nc2cc(Nc3cccc(N4CC5CC(C4)N5C)n3)ncc2s1 [Example 98, 6-{6-Methyl-3,6-diazabicyclo[3.1.1]heptan-3-yl}-N-[2-(3-methylpyridin-2-yl)-[1,3]thiazolo[5,4-c]pyridin-6-yl]pyridin-2-amine] | > 7.00

Same assay, conditions: Biochemical Potency (low ATP), 2 nM HPK1, 10 μM ATP

Compound | pIC50
Cc1ccc(Nc2cc3nc(-c4ccncc4)sc3cn2)nc1CN1CCCC1 [Example 35, 5-Methyl-N-[2-(pyridin-4-yl)-[1,3]thiazolo[5,4-c]pyridin-6-yl]-6-[(pyrrolidin-1-yl)methyl]pyridin-2-amine] | > 7.00

Same assay, conditions: HPK1 ADP-Glo assay, low ATP (10 μM ATP, 2 nM HPK1); read-out: Biochemical Potency (low ATP)

Compound | pIC50
CC(C)(O)c1cc(-c2nc3cc(Nc4cc(C5CCOCC5)nc(N5C[C@@H]6C[C@H]5CN6)n4)ncc3s2)ccn1 [Example 441] | > 7.00
CN1C[C@@H]2C[C@H]1CN2c1nccc(Nc2cc3nc(-c4ncco4)sc3cn2)n1 [Example 420] | > 7.00
CN1C[C@@H]2C[C@H]1CN2c1nccc(Nc2cc3nc(-c4ccnc(N5CC[C@H](O)C5)c4)sc3cn2)n1 [Example 462] | > 7.00
CN1C[C@@H]2C[C@H]1CN2c1nccc(Nc2cc3nc(-c4ccnc(N5CC[C@@H](O)C5)c4)sc3cn2)n1 [Example 465] | > 7.00
CNS(=O)(=O)c1cccc(-c2nc3cc(Nc4cccc(N5C[C@@H]6C[C@H]5CN6)n4)ncc3s2)c1 [Example 324] | > 7.00
